In patent publication US9238039B2, “Pyrazolo[1,5-A]pyrimidines for antiviral treatment” (Gilead Sciences, Inc., priority 2010, dated 2016):

Test system: RSV strain A2
Experiment: RSV antiviral cytoprotection assay in Hep2 cells (96-well and 384-well format, Cell TiterGlo read-out)
Type: cell-based, Respiratory Syncytial Virus (RSV)
Details: human respiratory syncytial virus; for inhibition at 0.5 µM: HEp-2, 0.5 uM, RSV-induced cytopathic effect in Hep2 cells, calculated from fitted dose response curve, normalized to 0% and 100%; for EC50: HEp-2, RSV-induced cytopathic effects, Hep2 cells, class symbols

| EC50 | SMILES | inhibition at 0.5 µM |
| --- | --- | --- |
| 0.1 to 100 nM | Cc1cn2nc([C@@H]3CCCCN3C(=O)c3cncc(Cl)c3)cc2nc1N1CC[C@H](N)C1 [Compound 306] | 100% |
| 0.1 to 100 nM | CC(=O)Nc1ccc(C)cc1C(=O)N1CCCC[C@H]1c1cc2nc(N3CC(O)C3)c(C)cn2n1 [Compound 221] | 100% |
| 0.1 to 100 nM | Cc1cn2nc([C@@H]3CCCCN3C(=O)c3cccnc3F)cc2nc1N1CC[C@H](N)C1 [Compound 282] | 100% |
| 101 to 1000 nM | Cc1cn2nc([C@@H]3CCCCN3C(=O)c3ccccc3C(F)(F)F)cc2nc1N1CC[C@H](N)C1 [Compound 387] | 77% |
| 0.1 to 100 nM | Cc1cn2nc([C@@H]3CCCCN3C(=O)c3cccc(F)c3F)cc2nc1N1CC[C@H](N)C1 [Compound 307] | 100% |
| 101 to 1000 nM | Cc1cn2nc([C@@H]3CCCCN3C(=O)c3cc(Cl)ccc3NS(C)(=O)=O)cc2nc1N1CCCC(O)C1 (some centres unmarked) [Compound 217] | 89% |
| 0.1 to 100 nM | Cc1cn2nc([C@@H]3CCCCN3C(=O)c3ccnn3C)cc2nc1N1CC[C@H](N)C1 [Compound 263] | 99% |
| 0.1 to 100 nM | CS(=O)(=O)Nc1ccc(Cl)cc1C(=O)N1CCCC[C@H]1c1cc2nc(N3CC(O)C3)cc(N3CC(O)C3)n2n1 [Compound 59] | 100% |
| 0.1 to 100 nM | CS(=O)(=O)Nc1ccc(Cl)cc1C(=O)N1CCCCCC1c1cc2nc(N3CC(N)C3)cc(N3CCOCC3)n2n1 (centres unmarked) [Compound 178] | 100% |
| 0.1 to 100 nM | Cc1cn2nc([C@@H]3CCCCN3C(=O)c3cc(Cl)ccc3NS(C)(=O)=O)cc2nc1N1CCN=C1N [Compound 146] | 99% |
| 0.1 to 100 nM | Cc1cn2nc([C@@H]3CCCCN3C(=O)c3cccnc3N)cc2nc1N1CC[C@H](N)C1 [Compound 275] | 100% |

| SMILES | EC50 | inhibition at 0.5 µM |
| --- | --- | --- |
| CS(=O)(=O)Nc1ccc(N)cc1C(=O)N1CCCC[C@H]1c1cc2nc(N3CCC3)cc(N3CCOCC3)n2n1 [Compound 193] | 0.1 to 100 nM | 100% |
| C[C@@H]1CN(c2cc(N3CC(O)C3)nc3cc([C@@H]4CCCCN4C(=O)c4cc(Cl)ccc4NS(C)(=O)=O)nn23)C[C@H](C)O1 [Compound 108] | 0.1 to 100 nM | 100% |
| Cc1cn2nc([C@@H]3CCCCN3C(=O)c3cc(Cl)ccc3NS(C)(=O)=O)cc2nc1N1CCC(N)CC1 [Compound 216] | 0.1 to 100 nM | 100% |
| CS(=O)(=O)Nc1ccc(Cl)cc1C(=O)N1CCCC[C@H]1c1cc2nc(N3CC(O)C3)cc(N3CCN(CC(F)(F)F)CC3)n2n1 [Compound 83] | 0.1 to 100 nM | 98% |
| CS(=O)(=O)Nc1ccc(Cl)cc1C(=O)N1CCCCCC1c1cc2nc(N3CCC3)cc(N3CCOCC3)n2n1 (centres unmarked) [Compound 177] | 0.1 to 100 nM | 99% |
